Measurements: patent US20220217972A1, “Methods for cryopreservation of sub-millimeter and millimeter scale biological materials” (Regents of the University of Minnesota, priority 2021, published 2022)

Tests used:
[1] = tested on: Drosophila melanogaster embryos; details: permeable CPAs compared under the same weight concentration; strain M2
Description: (§1) CPA loading and dehydration. Right after permeabilization, a brush was used to break up clumps into individual embryos floating as a monolayer with minimal overlap (FIG. 2B). […] The embryos should remain floating in order to maintain access to oxygen. After 3 min, “wrinkles” on the embryo surface were observed under a dissecting microscope, indicating volumetric shrinkage (i.e., losing water) in response to higher external osmolarity (FIG. 2C). The percentage of embryos that shrunk was recorded. The 13 weight percent EG petri dish was then placed in a humid chamber. At 25 min, embryos were inspected under a dissecting microscope to confirm that they swelled back to their original shape, indicating EG had entered the embryos. The percentage of embryos that swelled back was recorded.
Next, the mesh basket was blotted and placed in 39 weight percent EG+9 weight percent sorbitol solution prepared in cryobuffer on ice (i.e., ˜4° C.) for 9 min This step dehydrates the embryos (i.e., water loss) thereby elevating the intra-embryonic EG concentration to favor vitrification and avoidance of devitrification during the rewarming processes. In general, 5-6 ml dehydration CPA was used in a 35 mm petri dish.
At this point, intra-embryonic CPA concentration was elevated through dehydration by placing the embryos in a high concentration CPA (i.e., ˜39 weight percent) at 4° C. […]

[2] = tested on: Drosophila melanogaster embryos; assay: Post cryopreservation survival (hatch rate and adult rate) of embryos; type: in vivo; details: strain M2; for post cryopreservation survival: replacing sorbitol as sugar in dehydration CPA
Description: Step 1. Embryo collection and staging. On day 1, 700-1200 flies at the age of 1-4 days old were used to collect embryos at room temperature. Usually 4 bottles of flies were used, 8 or more bottles were used if needed. Flies were placed in an empty Drosophila bottle covered with a mesh cloth as a cap (FIG. 2A). Embryos were collected in a 1 hour period on a grape juice plate smeared with yeast paste. The first hour collection served as an egg clean-up procedure for the female flies and were abandoned. Disturbance of flies was minimized during embryo collection. Grape juice plates with collected embryos were labeled with the end time point of collection, for instance, 3 pm was used to label the collection from 2 pm to 3 pm. Embryos were placed in a temperature incubator at 20.1±0.05° C. (Heratherm purchased from Thermo Scientific) until reaching the desired stage for cryopreservation. 20° C. was selected so that optimal embryo age for cryopreservation will be achieved during a normal work hour on the following day. In this work, embryo collection occurred in the afternoon and usually 2-4 collections were performed.
Step 2. Dechorionation and permeabilization. On day 2, embryos were washed off from the grape juice plate into a nylon mesh basket and dechorionated in 50% bleach for 2-4 minutes. After rinsing with running tap water for 1-2 minutes to remove excess bleach, embryos along with the mesh basket were briefly blotted on paper towel and placed in the cryobuffer (20 mM NaCl, 2.7 mM KCl, 10 mM Na2HPO4, 1.8 mM KH2PO4, 4 mM MgCl2, 13 mM MgSO4, 60 mM Glycine, 60 mM Glutamic acid and 5 mM Malic acid, pH6.8, sterilized by filtration) in a 35 mm petri dish. Embryos were examined under a dissecting microscope to confirm the removal of chorions. In addition, the gut morphology was evaluated to verify the embryo stage (FIG. 2B).
Before permeabilization, ˜4 ml isopropanol, mixture of D-limonene and heptane (4:1 v/v), and heptane alone were added to three separate 35 mm glass petri dishes in a fume hood. […]
Step 3. […] The percentage of embryos that shrunk was recorded. […]

[3] = tested on: Drosophila melanogaster embryos; details: 13 weight percent EG in cryobuffer; shrink at 3 min, swelled back at 25 min; correct stage, properly permeabilized
Description: as §1

Row | SMILES | CPA toxicity (post dehydration survival) [1] | survival post cryopreservation ([2]; permeable CPAs compared under the same weight concentration) | embryos that shrink and swell [3] [%] | post cryopreservation survival [2]
1 | C[S+](C)[O-] [DMSO, dimethyl sulfoxide] | highest CPA toxicity |  |  | 
2 | OCCO [EG, ethylene glycol] | least CPA toxicity | highest survival post cryopreservation | > 90 | 
3 | OC[C@H]1O[C@@](CO)(O[C@H]2O[C@H](CO)[C@@H](O)[C@H](O)[C@H]2O)[C@@H](O)[C@@H]1O [sucrose] |  |  |  | did not affect post cryopreservation survival
4 | OC[C@H]1O[C@H](O[C@H]2O[C@H](CO)[C@@H](O)[C@H](O)[C@H]2O)[C@H](O)[C@@H](O)[C@@H]1O [trehalose] |  |  |  | did not affect post cryopreservation survival
